Active and inactive are the calls of the source.
Tests used:
[1] = biological target: Fructose-bisphosphate aldolase (Mycobacterium tuberculosis, UniProt P9WQA3); test: Fluorescence-based biochemical high throughput dose response assay for inhibitors of the fructose-bisphosphate aldolase (FBA) of M. tuberculosis.; assay type: functional
H9c2 = test: cells; assay type: functional, cell-based; conditions: Rattus norvegicus, H9c2, Myocardium;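 also: confirmatory concentration-response retest of ultra-high-throughput screening hits for modulation of myocardial damage; cell death induced by hydrogen peroxide oxidative stress; compound pretreatment for 60 min then peroxide exposure for 2 h; potency is for protecting the cells against peroxide damage rather than for killing them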
Protein S100-A4 = Protein S100-A4 (Homo sapiens, UniProt P26447); test: human S100A4 peptide interaction inhibition curves – biochemical, fluorescence polarization, cherry-picked hits, dose response (AID 687001); assay type: functional
[2] = biological target: T1, Heat shock factor protein 1 (Mus musculus, UniProt P38532); test: enhancement of HSF1-driven luciferase signal – cell-based, NIH3T3, luminescence, dose retest, confirmation (AID 435004); assay type: functional;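 also: stress induced by proteasome inhibitor MG132 added 30 min after compound; luciferase reporter driven by HSF1 response element in NIH3T3 cells; actives raise luminescence as potentiators of the MG132 stress response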
T1 sequence (P38532 whole entry): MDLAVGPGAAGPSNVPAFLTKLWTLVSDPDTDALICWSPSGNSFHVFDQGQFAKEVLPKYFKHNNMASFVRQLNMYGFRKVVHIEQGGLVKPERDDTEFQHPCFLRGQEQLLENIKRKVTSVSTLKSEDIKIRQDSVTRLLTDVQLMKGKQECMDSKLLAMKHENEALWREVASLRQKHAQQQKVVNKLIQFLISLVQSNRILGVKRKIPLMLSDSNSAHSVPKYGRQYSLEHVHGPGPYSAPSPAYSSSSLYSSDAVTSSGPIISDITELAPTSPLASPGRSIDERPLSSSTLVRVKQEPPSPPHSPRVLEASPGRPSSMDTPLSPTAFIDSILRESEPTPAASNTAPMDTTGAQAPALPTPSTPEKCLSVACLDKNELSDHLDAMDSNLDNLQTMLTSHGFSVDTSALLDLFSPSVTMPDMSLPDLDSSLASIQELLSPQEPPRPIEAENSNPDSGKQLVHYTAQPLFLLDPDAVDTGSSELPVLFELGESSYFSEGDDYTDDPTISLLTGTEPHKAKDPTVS

[3] = biological target: T2, Corticotropin-releasing factor receptor 2/Corticotropin-releasing factor-binding protein (Homo sapiens, UniProt P24387+Q13324); test: activators of CRF receptor 2 with binding protein – uHTS hits, confirmation (AID 602473); assay type: functional; conditions: read-out: EC50_Mean
T2 sequence (Q13324 whole entry): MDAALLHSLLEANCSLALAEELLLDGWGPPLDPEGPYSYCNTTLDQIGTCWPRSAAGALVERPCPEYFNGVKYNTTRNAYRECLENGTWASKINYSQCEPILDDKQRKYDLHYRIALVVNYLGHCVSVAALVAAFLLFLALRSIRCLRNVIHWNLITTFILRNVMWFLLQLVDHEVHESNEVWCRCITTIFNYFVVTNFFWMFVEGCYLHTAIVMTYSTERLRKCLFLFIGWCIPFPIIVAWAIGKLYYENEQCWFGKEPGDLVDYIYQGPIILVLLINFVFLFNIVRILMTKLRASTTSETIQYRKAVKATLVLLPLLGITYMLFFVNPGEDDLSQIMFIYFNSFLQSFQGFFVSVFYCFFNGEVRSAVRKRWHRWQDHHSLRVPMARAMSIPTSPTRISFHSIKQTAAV
T2 sequence (P24387 whole entry): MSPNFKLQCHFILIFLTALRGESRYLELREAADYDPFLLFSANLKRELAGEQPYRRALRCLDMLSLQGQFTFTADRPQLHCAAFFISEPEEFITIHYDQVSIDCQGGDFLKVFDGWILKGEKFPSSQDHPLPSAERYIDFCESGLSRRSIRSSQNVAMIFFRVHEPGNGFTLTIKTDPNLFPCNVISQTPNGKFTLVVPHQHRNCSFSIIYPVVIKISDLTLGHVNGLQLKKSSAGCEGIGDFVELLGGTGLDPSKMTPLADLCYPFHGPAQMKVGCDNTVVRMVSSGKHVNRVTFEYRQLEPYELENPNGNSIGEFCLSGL

Beta-galactosidase = Beta-galactosidase (Escherichia coli, UniProt Q8VNN2); test: Dose response counterscreen for EBI2 assay utilizing the enzyme, b-galactosidase.; assay type: functional
A549 = test: viability loss in A549 cells – cell-based, plate reader, cherry-pick samples, cytotoxicity control, dose response (AID 687028); assay type: functional; conditions: Homo sapiens
Vero = test: viability loss in Vero cells – cell-based, plate reader, cherry-pick samples, cytotoxicity control, dose response (AID 687020); assay type: functional; conditions: Chlorocebus sabaeus
BHK-21 = test: viability loss in BHK-21 cells – cell-based, plate reader, cherry-pick samples, cytotoxicity control, dose response (AID 687030); assay type: functional; conditions: Mesocricetus auratus
HeLa = test: viability loss in HeLa cells – cell-based, ATP luminescence, cherry-pick samples, cytotoxicity control, dose response (AID 687004); assay type: functional; conditions: Homo sapiens
HepG2 = test: HepG2 Cytotoxicity Assay Measured in Cell-Based System Using Plate Reader - 7071-02_Inhibitor_Dose_CherryPick_Activity.; assay type: functional; conditions: Homo sapiens
[4] = T. cruzi growth inhibition in host cells, dose response, cell-based, plate reader, dry powder, set 2 (AID 652275); assay type: functional
[5] = Late stage assay provider results from the probe development effort to identify inhibitors of the Plasmodium falciparum M17 Leucine Aminopeptidase (M17LAP): radiolabel-based cell-based dose response assay to identify compounds that inhibit P. falciparum growth in RBCs Set 2.; assay type: functional

Chain of Protein S100-A4 (P26447 whole entry): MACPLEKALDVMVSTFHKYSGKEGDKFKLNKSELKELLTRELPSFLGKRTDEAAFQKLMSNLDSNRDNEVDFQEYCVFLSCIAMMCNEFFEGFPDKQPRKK
Chain of Beta-galactosidase (Q8VNN2 whole entry): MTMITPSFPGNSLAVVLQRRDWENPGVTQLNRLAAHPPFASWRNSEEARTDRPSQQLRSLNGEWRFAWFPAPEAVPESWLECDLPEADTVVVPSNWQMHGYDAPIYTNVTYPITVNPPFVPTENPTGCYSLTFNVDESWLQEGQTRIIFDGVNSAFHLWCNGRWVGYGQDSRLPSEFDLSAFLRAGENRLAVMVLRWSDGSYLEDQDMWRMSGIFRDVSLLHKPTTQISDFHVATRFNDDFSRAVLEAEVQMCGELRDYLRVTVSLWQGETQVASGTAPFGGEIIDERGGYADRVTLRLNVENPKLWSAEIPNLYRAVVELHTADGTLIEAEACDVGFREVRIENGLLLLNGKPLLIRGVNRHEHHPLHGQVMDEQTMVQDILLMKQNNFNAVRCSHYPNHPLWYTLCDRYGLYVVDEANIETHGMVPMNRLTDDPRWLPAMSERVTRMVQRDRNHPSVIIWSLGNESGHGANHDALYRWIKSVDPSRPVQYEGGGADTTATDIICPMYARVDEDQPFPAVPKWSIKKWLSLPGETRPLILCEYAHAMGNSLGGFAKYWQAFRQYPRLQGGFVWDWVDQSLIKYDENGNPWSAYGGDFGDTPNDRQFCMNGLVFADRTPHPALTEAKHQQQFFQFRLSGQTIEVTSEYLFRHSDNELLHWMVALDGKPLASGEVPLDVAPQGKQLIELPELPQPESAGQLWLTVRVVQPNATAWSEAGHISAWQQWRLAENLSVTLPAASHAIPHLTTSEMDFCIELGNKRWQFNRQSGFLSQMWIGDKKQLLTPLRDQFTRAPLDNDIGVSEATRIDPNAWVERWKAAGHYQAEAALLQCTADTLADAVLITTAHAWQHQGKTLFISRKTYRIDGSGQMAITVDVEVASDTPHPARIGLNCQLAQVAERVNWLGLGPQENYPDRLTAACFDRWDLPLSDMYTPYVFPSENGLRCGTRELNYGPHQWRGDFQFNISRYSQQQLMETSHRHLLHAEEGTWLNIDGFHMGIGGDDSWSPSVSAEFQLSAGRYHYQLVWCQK
Chain of Fructose-bisphosphate aldolase (P9WQA3 whole entry): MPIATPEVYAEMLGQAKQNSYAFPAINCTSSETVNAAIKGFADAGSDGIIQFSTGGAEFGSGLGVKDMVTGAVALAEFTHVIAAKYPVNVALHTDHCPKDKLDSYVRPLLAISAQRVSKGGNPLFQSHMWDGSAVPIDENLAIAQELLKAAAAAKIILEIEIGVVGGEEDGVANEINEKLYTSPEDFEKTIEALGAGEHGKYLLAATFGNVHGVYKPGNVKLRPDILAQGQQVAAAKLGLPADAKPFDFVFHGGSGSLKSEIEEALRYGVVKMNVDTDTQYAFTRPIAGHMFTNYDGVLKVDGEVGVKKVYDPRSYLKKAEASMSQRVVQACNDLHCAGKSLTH

Question: Which IC50 [1] does the source give for `N#Cc1c(-c2ccco2)cc(C2CC2)nc1N` here?
Answer: Its IC50 is 1.43 µM (active).

Question: With `O=C1C=C(N2CCOCC2)c2cccc3cccc1c23` as the compound, how does the IC50 (H9c2) read?
Answer: Its IC50 is 18.2 µM (active).

Question: And the AC50 (Protein S100-A4)?
Answer: The AC50 was 4.83 µM (active).

Question: Which results are given for `CC1(C)CC(=O)C(=CNc2cc(C(=O)c3ccccc3)ccc2/N=C/C2=C(O)CC(C)(C)CC2=O)C(=O)C1`?
Answer: EC50 [2]: 56.1 µM (active); EC50 [3]: > 53 µM (inactive); IC50 (Beta-galactosidase): 7.97 µM (active)

Question: Which AC50 (A549) does the source give for `COc1ccc(-c2cn(CC[C@@H]3CC[C@H](NC(=O)Nc4ccc(F)cc4)[C@H](CO)O3)nn2)cc1` here?
Answer: Its AC50 is 21.3 µM (active).

Question: And the AC50 (Vero)?
Answer: The AC50 was 24.2 µM (active).

Question: What about the AC50 (BHK-21) of the same compound?
Answer: The AC50 was 38.8 µM (active).

Question: For `CN(C[C@H]1N[C@@H](CO)[C@H]1c1ccc(-c2cccc(F)c2)cc1)S(C)(=O)=O`, which AC50 (HeLa) is on record?
Answer: Its AC50 is 20.3 µM (active).

Question: What about the AC50 (HepG2) of the same compound?
Answer: Its AC50 is 23.7 µM (active).

Question: With `CC(C)N1CC2(CN(CC3CCCCC3)C2)Oc2c(NC(=O)c3ccncc3)cccc2C1=O` as the compound, how does the AC50 [4] read?
Answer: Its AC50 is 1.18 µM (active).

Question: Which IC50 [5] does the source give for `CCCCOc1ccc(C(C)C(=O)NO)cc1` (stereo not drawn) here?
Answer: Its IC50 is 12.9 µM (inactive).

Reference: ChEMBL document CHEMBL1201862, “PubChem BioAssay data set” (2004)
